For this experiment, the system named is yeast tRNA^Phe (RNA, tRNA) GCGGAUUUAGCUCAGUUGGGAGAGCGCCAGACUGAAGAUCUGGAGGUCCUGUGUUCGAUCCACAGAAUUCGCACCA
Nature of the experiment: inhibition of lead(II)-induced cleavage, gel. To be noted: 10 mM Mg2+, 1 mM NH4+, 0.5 mM Pb2+; 50% inhibition of Pb2+ cleavage; 50 mM Tris-HCl pH 7.5; RNA 2.4 μM.

Drawing on PMC5039424 (2016), this text covers Ki for one molecule.

Broadly, the Ki is a dissociation constant, usually derived from enzyme kinetics or from competition with a known ligand. Low values mean a stronger hold on the target, high ones a looser hold on the target. The molecule `Cc1cc2nc3ccc(N(C)C)cc3[s+]c2cc1N` registered a Ki of 70 ± 20 µM.
